Source: patent US11142515B2, “Pyrazolyl-ureas as kinase inhibitors” (RESPIVERT LIMITED, priority 2014, dated 2021)
pIC50: −log10 of the molar value.

Columns and labels:
p38MAPKγ (MAPK12) = biological target: T1, p38MAPKγ (MAPK12) (Homo sapiens, UniProt P53778); assay: p38 MAPKγ enzyme inhibition (Z-LYTE FRET); type: biochemical; settings: Table 2B, unit inferred; read-out: p38 MAPKγ (Enzyme Profile)
T1 construct: purchased Life Technologies
T1 sequence (P53778 1-367): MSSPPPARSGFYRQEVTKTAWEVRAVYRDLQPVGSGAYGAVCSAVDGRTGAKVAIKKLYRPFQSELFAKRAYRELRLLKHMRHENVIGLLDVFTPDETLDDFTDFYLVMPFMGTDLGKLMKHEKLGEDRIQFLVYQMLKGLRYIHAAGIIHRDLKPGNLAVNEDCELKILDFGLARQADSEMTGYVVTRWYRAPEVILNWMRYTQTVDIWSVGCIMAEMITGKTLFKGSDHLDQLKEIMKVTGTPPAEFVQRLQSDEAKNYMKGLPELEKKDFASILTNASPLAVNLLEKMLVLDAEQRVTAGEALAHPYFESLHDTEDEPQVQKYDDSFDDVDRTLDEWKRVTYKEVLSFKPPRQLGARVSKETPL
Procedure, shortened: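 Z-LYTE read-out: after 1 h protease development, only non-phosphorylated peptide is cleaved, and the donor/acceptor (coumarin/fluorescein) ratio reports phosphorylation. Beforehand, enzyme and compound (stock concentrations 0.0012–40 μg/mL) were preincubated 2 h at RT, then the kinase reaction ran 1 h at RT with peptide and ATP (8 μM and 400 μM stocks).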

[1] = biological target: T2, p38 MAPKα isoform (MAPK14) (Homo sapiens, UniProt Q16539); assay: p38 MAPKα enzyme inhibition (Z-LYTE FRET); type: biochemical; settings: Table 2B, unit inferred; read-out: p38 MAPKα (Enzyme Profile)
T2 construct: purchased Life Technologies
Procedure, shortened: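 Recombinant human MAPK14 (40 ng/mL stock) was preincubated 2 h at RT with compound (stock dilutions 0.0012-40 μg/mL). The Z-LYTE FRET read-out used a MAPKAP-K2-derived peptide, and protease development for 1 h cleaved only non-phosphorylated peptide. Phosphorylation was calculated from the coumarin/fluorescein emission ratio.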

T2 sequence (Q16539 whole entry, canonical isoform): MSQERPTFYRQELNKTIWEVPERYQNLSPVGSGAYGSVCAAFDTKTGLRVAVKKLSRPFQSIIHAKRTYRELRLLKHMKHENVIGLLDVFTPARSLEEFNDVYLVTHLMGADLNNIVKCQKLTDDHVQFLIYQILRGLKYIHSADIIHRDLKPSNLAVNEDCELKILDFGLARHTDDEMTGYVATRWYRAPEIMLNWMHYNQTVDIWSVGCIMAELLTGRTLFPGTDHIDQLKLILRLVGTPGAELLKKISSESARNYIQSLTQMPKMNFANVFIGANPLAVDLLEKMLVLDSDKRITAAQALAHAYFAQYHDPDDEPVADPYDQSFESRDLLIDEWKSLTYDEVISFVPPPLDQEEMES

| SMILES | pIC50 (p38MAPKγ (MAPK12)) | pIC50 [1] |
| --- | --- | --- |
| Cc1ccc(-n2nc(C(C)(C)C)cc2NC(=O)Nc2ccc(OCc3ccnc(Nc4cnc(C(=O)N5CC(F)C5)cn4)c3)c3ccccc23)cc1 [Example 193, 1-(3-(tert-butyl)-1-(p-tolyl)-1H-pyrazol-5-yl)-3-(4-((2-((5-(3-fluoroazetidine-1-carbonyl)pyrazin-2-yl)amino)pyridin-4-yl)methoxy)naphthalen-1-yl)urea] | < 4.85 | 7.05 |
| CCCc1cncc(Nc2cc(COc3ccc(NC(=O)Nc4cc(C(C)(C)C)nn4-c4ccc(C)c(F)c4)c4ccccc34)ccn2)n1 [Example 194, 1-(3-(tert-butyl)-1-(3-fluoro-4-methylphenyl)-1H-pyrazol-5-yl)-3-(4-((2-((6-propyl-pyrazin-2-yl)amino)pyridin-4-yl)methoxy)naphthalen-1-yl)urea] | 5.08 | 6.68 |
| COCc1cnc(Nc2cc(COc3ccc(NC(=O)Nc4cc(C(C)(C)C)nn4-c4cccc(C)c4)c4ccccc34)ccn2)cn1 [Example 195, 1-(3-(tert-butyl)-1-(m-tolyl)-1H-pyrazol-5-yl)-3-(4-((2-((5-(methoxymethyl)pyrazin-2-yl)amino)pyridin-4-yl)methoxy)naphthalen-1-yl) urea] | 6.61 | 7.82 |
| COc1cc(C)cc(-n2nc(C(C)(C)C)cc2NC(=O)Nc2ccc(OCc3ccnc(Nc4cnccn4)c3)c3ccccc23)c1 [Example 196, 1-(3-(tert-butyl)-1-(3-methoxy-5-methylphenyl)-1H-pyrazol-5-yl)-3-(4-((2-(pyrazin-2-ylamino)pyridin-4-yl)methoxy)naphthalen-1-yl)urea] | 6.66 | 7.54 |
| CCOc1ccc(-n2nc(C(C)(C)C)cc2NC(=O)Nc2ccc(OCc3ccnc(Nc4cnccn4)c3)c3ccccc23)cc1C [Example 197, 1-(3-(tert-butyl)-1-(4-ethoxy-3-methylphenyl)-1H-pyrazol-5-yl)-3-(4-((2-(pyrazin-2-ylamino)pyridin-4-yl)methoxy)naphthalen-1-yl)urea] | < 4.81 | 7.43 |
| Cc1ccc(-n2nc(C(C)(C)C)cc2NC(=O)Nc2ccc(OCc3ccnc(Nc4cnccn4)c3)c3ccccc23)cn1 [Example 198, 1-(3-(tert-butyl)-1-(6-methylpyridin-3-yl)-1H-pyrazol-5-yl)-3-(4-((2-(pyrazin-2-ylamino)pyridin-4-yl)methoxy)naphthalen-1-yl)urea] | 6.95 | 8.00 |
| CO[C@@H]1CCN(C(=O)c2cnc(Nc3cc(COc4ccc(NC(=O)Nc5cc(C(C)(C)C)nn5-c5cccc(C)c5)c5ccccc45)ccn3)cn2)C1 [Example 199, (R)-1-(3-(tert-butyl)-1-(m-tolyl)-1H-pyrazol-5-yl)-3-(4-((2-((5-(3-methoxy-pyrrolidine-1-carbonyl)pyrazin-2-yl)amino)pyridin-4-yl)methoxy)naphthalen-1-yl)urea] | < 4.86 | 7.96 |
| CO[C@H]1CCN(C(=O)c2cnc(Nc3cc(COc4ccc(NC(=O)Nc5cc(C(C)(C)C)nn5-c5cccc(C)c5)c5ccccc45)ccn3)cn2)C1 [Example 200, (S)-1-(3-(tert-butyl)-1-(m-tolyl)-1H-pyrazol-5-yl)-3-(4-((2-((5-(3-methoxy-pyrrolidine-1-carbonyl)pyrazin-2-yl)amino)pyridin-4-yl)methoxy)naphthalen-1-yl)urea] | 5.91 | 7.89 |
| CCCc1cncc(Nc2cc(COc3ccc(NC(=O)Nc4cc(C(C)(C)C)nn4-c4cccc(C)c4)c4ccccc34)ccn2)n1 [Example 201, 1-(3-(tert-butyl)-1-(m-tolyl)-1H-pyrazol-5-yl)-3-(4-((2-((6-propylpyrazin-2-yl)amino)pyridin-4-yl)methoxy)naphthalen-1-yl)urea] | 5.10 | 6.95 |
| CC(C)(C)c1cc(NC(=O)Nc2ccc(OCc3ccnc(Nc4cnc(C(=O)N5CCCC5)cn4)c3)c3ccccc23)n(-c2cccc(F)c2)n1 [Example 202, 1-(3-(tert-butyl)-1-(3-fluorophenyl)-1H-pyrazol-5-yl)-3-(4-((2-((5-(pyrrolidine-1-carbonyl)pyrazin-2-yl)amino)pyridin-4-yl)methoxy)naphthalen-1-yl)urea] | 5.95 | 7.72 |
| COCc1cnc(Nc2cc(COc3ccc(NC(=O)Nc4cc(C(C)(C)C)nn4-c4cccc(F)c4)c4ccccc34)ccn2)cn1 [Example 203, 1-(3-(tert-butyl)-1-(3-fluorophenyl)-1H-pyrazol-5-yl)-3-(4-((2-((5-(methoxymethyl)pyrazin-2-yl)amino)pyridin-4-yl)methoxy)naphthalen-1-yl) urea] | 6.60 | 7.77 |
| CNC(=O)c1cnc(Nc2cc(COc3ccc(NC(=O)Nc4cc(C(C)(C)C)nn4-c4cccc(C)c4)c4ccccc34)ccn2)cn1 [Example 204, 5-((4-(((4-(3-(3-(tert-butyl)-1-(m-tolyl)-1H-pyrazol-5-yl)ureido)naphthalen-1-yl)oxy)methyl)pyridin-2-yl)amino)-N-methylpyrazine-2-carboxamide] | 6.48 | 7.80 |
| COCCN(C)C(=O)c1cnc(Nc2cc(COc3ccc(NC(=O)Nc4cc(C(C)(C)C)nn4-c4cccc(C)c4)c4ccccc34)ccn2)cn1 [Example 205, 5-((4-(((4-(3-(3-(tert-butyl)-1-(m-tolyl)-1H-pyrazol-5-yl)ureido)naphthalen-1-yl)oxy)methyl)pyridin-2-yl)amino)-N-(2-methoxyethyl)-N-methylpyrazine-2-carboxamide] | 6.58 | 7.89 |
| COC1CCN(C(=O)c2cnc(Nc3cc(COc4ccc(NC(=O)Nc5cc(C(C)(C)C)nn5-c5cccc(C)c5)c5ccccc45)ccn3)cn2)CC1 [Example 206, 1-(3-(tert-butyl)-1-(m-tolyl)-1H-pyrazol-5-yl)-3-(4-((2-((5-(4-methoxypiperidine-1-carbonyl)pyrazin-2-yl)amino)pyridin-4-yl)methoxy)naphthalen-1-yl)urea] | 6.29 | 7.66 |
| COc1ccc(-n2nc(C(C)(C)C)cc2NC(=O)Nc2ccc(OCc3ccnc(Nc4cnc(C)c(C)n4)c3)c3ccccc23)cn1 [Example 207, 1-(3-(tert-butyl)-1-(6-methoxypyridin-3-yl)-1H-pyrazol-5-yl)-3-(4-((2-((5,6-dimethylpyrazin-2-yl)amino)pyridin-4-yl)methoxy)naphthalen-1-yl)urea] | 5.62 | 7.52 |
| COc1cc(-n2nc(C(C)(C)C)cc2NC(=O)Nc2ccc(OCc3ccnc(Nc4cnc(C)c(C)n4)c3)c3ccccc23)ccc1C [Example 208, 1-(3-(tert-butyl)-1-(3-methoxy-4-methylphenyl)-1H-pyrazol-5-yl)-3-(4-((2-((5,6-dimethylpyrazin-2-yl)amino)pyridin-4-yl)methoxy)naphthalen-1-yl) urea] | < 4.82 | 7.30 |
| COCCNC(=O)Cc1cncc(Nc2cc(COc3ccc(NC(=O)Nc4cc(C(C)(C)C)nn4-c4ccc(C)cc4)c4ccccc34)ccn2)n1 [Example 209, 2-(6-((4-(((4-(3-(3-(tert-butyl)-1-(p-tolyl)-1H-pyrazol-5-yl)ureido)naphthalen-1-yl)oxy)methyl)pyridin-2-yl)amino)pyrazin-2-yl)-N-(2-methoxyethyl)acetamide] | 7.27 | 8.19 |
| CCc1cncc(Nc2cc(COc3ccc(NC(=O)Nc4cc(C(C)(C)C)nn4-c4ccc(COC)cc4)c4ccccc34)ccn2)n1 [Example 210, 1-(3-(tert-butyl)-1-(4-(methoxymethyl)phenyl)-1H-pyrazol-5-yl)-3-(4-((2-((6-ethylpyrazin-2-yl)amino)pyridin-4-yl)methoxy)naphthalen-1-yl)urea] | 6.29 | 7.55 |
| CCc1cncc(Nc2cc(COc3ccc(NC(=O)Nc4cc(C(C)(C)C)nn4-c4cc(F)cc(OC)c4)c4ccccc34)ccn2)n1 [Example 211, 1-(3-(tert-butyl)-1-(3-fluoro-5-methoxyphenyl)-1H-pyrazol-5-yl)-3-(4-((2-((6-ethylpyrazin-2-yl)amino)pyridin-4-yl)methoxy)naphthalen-1-yl)urea] | 6.24 | 7.22 |
| CCc1cncc(Nc2cc(COc3ccc(NC(=O)Nc4cc(C(C)(C)C)nn4-c4cc(C)cc(C)c4)c4ccccc34)ccn2)n1 [Example 212, 1-(3-(tert-butyl)-1-(3,5-dimethylphenyl)-1H-pyrazol-5-yl)-3-(4-((2-((6-ethyl-pyrazin-2-yl)amino)pyridin-4-yl)methoxy)naphthalen-1-yl)urea] | < 4.81 | 7.05 |
| CCc1cncc(Nc2cc(COc3ccc(NC(=O)Nc4cc(C(C)(C)C)nn4-c4ccc(F)cc4)c4ccccc34)ccn2)n1 [Example 213, 1-(3-(tert-butyl)-1-(4-fluoro-phenyl)-1H-pyrazol-5-yl)-3-(4-((2-((6-ethylpyrazin-2-yl)amino)pyridin-4-yl)methoxy)naphthalen-1-yl)urea] | 6.13 | 7.44 |
